The values that follow are results of earlier work, collected in US6806373B2, “Process for preparing leflunomide form I” (Teva Pharmaceutical Industries Ltd., priority 1999, dated 2004).

Structures are written as SMILES.

The conditions of data set [1]: solid form, according to AU-A-78870/98.
The conditions of data set [2]: according to AU-A-78870/98.
The conditions of data set [3]: water or mixtures of water and C1-C4 alcohols, acetone or methyl ethyl ketone, even with heating (<40° C.).

For `Cc1oncc1C(=O)Nc1ccc(C(F)(F)F)cc1` [Form II], the “kinetically stable up to (temperature)” value in data set [1] is “up to 40 °C”. Further, in data set [2], the “dissolution in water compared with Form I” value is given as “more readily dissolves in water than does Form I”.
As for `Cc1oncc1C(=O)Nc1ccc(C(F)(F)F)cc1` [leflunomide], the “solubility in suspension solvents” value in data set [3] is on record as “poorly soluble”.
